Test results taken from US7795254B2, “Benzomorpholine derivatives and methods of use” (Amgen Inc., priority 2007, dated 2010).
Read-outs that look alike come from different tables or passages of the source.

Experiments:
[1] = Rat pharmacokinetic profile; settings: in vivo
Source text: (§1) Table 7 provides additional information about the pharmacokinetic profiles of reference compound 1 and Compound A. The data contained in this table was obtained using methods well known in the art.

liver microsomes = test: In vitro metabolite profiling in liver microsomes; format: in vitro ADME; settings: 10 μM, liver microsomes 1 mg/mL (human, mouse, rat, monkey, rabbit, dog), NADPH, 37° C., 1 hr
Procedure: Incubation mixtures were prepared including [14C]-Compound A (10 μM, 0.5 μCi), liver microsomes at 1 mg/mL (human, mouse, rat, monkey, rabbit, dog), MgCl2 (3 mM), and potassium phosphate buffer (100 mM). The reaction was started by adding NADPH (1 mM) and incubations were carried out in a shaking water bath maintained at 37° C. for 1 hr. The reactions were stopped by adding 1 volume of ACN:MeOH 1:1 mixture; vortex mixed; centrifuged at 16000×g. The supernatants were analyzed on a reverse phase HPLC (Agilent 1100, Agilent systems, DE) in line with a radiomatic (β-ram, IN/US systems, FL) detector and an LTQ ion-trap mass spectrometer (ThermoFisher, San Jose, Calif.). HPLC separations were carried out on a phenyl-hexyl luna (150×4.6 mm, 5 μm, Phenomenex Inc) column maintained at 40° C. at a flow rate of 1 mL/min. A binary mobile phase consisting of 10 mM ammonium formate in H2O (solvent A) and 0.1% formic in MeOH (solvent B) was employed under the following gradient conditions: 0 to 2 min, 95% A; 2 to 10 min, 95 to 75% A; 10 to 40 min, 75 to 60% A; 40 to 60 min, 60 to 55% A; 60 to 77 min, 55 to 25% A; 77 to 78 min, 25 to 5% A; 78 to 83 min, 5% A; 83 to 84 min, 5 to 95% A; 84 to 90 min, 95% A. The flow post-column was split such that 80% went to radiomatic detector and the remaining 20% to MS. […]

[2] = system: VEGF-induced rat corneal angiogenesis; test: VEGF-induced rat corneal angiogenesis assay; format: in vivo; settings: for Average # of Vessels: 7 days
Procedure: (§2) Tables 2 through 6 below describe the results obtained in the rat corneal in vivo model of angiogenesis for (1) reference compound (free base) 1, (2) Compound A (free base), and (3) the hydrochloride salt of Compound A. A VEGF-induced rat corneal angiogenesis assay was performed using the following procedure: • In Life Aspects: Female CD rats weighing approximately 250 grams were randomized into one of six treatment groups. On the day of surgery the rats were temporarily anesthetized using isoflurane. A vertical incision was made on the midline of the cornea and a pocket was created to separate the connective tissue layers of the stroma. The distance between the apex of the pocket and the limbus was approximately 1.8 mm. A presoaked nylon filter disk was inserted to the apex of the pocket (in the case of the control treatment group, the disks were soaked in a buffer containing bovine serum albumin; in the remaining treatment groups, the disks were soaked in buffer containing bovine serum albumin plus human VEGF to induce angiogenesis). The different treatment groups were then dosed daily with either vehicle (Ora Plus™, a commercially available vehicle) or a designated amount of test compound formulated in vehicle. • Study Termination and Analysis: After seven days, the rats were euthanized and the implanted corneas photographed using a Nikon SV-3 Ophthalmic Slit Lamp. Numerical data were generated from the digital images using the Metamorph image analysis system (Universal Imaging). Three endpoints were analyzed on each corneal image: (1) disk placement distance from the limbus, (2) number of vessels intersecting a perpendicular line at the midpoint of the disk placement distance, and (3) blood vessel area, as determined by thresholding and automated pixel counting. Only the number of blood vessels is shown in the tables as this endpoint correlated well with the blood vessel area. • Statistical Analysis: Results were analyzed with the StatView statistical program using one-way ANOVA, followed by Fisher's least significant difference test. Data are presented as mean±SE and P<0.05 was considered significant. AUC and ED50 values were calculated using methods well known in the art.

Rat Liver Microsome = test: Rat liver microsome clearance; format: in vitro ADME; settings: rat liver microsomes
Source text: as §1

[3] = Exposure (AUC) in the rat corneal angiogenesis study; format: in vivo; settings: for AUC: female, CD, rat, in vivo, oral, Table 3, free base
Procedure: as §2

Human Liver Microsome = test: Human liver microsome clearance; format: in vitro ADME; settings: human liver microsomes
Source text: as §1

cytochrome P450 3A4 = cytochrome P450 3A4 (Homo sapiens, UniProt P08684); test: Incubation with recombinant human cytochrome P450 3A4; format: in vitro ADME; settings: fortified with NADPH
Chain of cytochrome P450 3A4 (P08684 whole entry): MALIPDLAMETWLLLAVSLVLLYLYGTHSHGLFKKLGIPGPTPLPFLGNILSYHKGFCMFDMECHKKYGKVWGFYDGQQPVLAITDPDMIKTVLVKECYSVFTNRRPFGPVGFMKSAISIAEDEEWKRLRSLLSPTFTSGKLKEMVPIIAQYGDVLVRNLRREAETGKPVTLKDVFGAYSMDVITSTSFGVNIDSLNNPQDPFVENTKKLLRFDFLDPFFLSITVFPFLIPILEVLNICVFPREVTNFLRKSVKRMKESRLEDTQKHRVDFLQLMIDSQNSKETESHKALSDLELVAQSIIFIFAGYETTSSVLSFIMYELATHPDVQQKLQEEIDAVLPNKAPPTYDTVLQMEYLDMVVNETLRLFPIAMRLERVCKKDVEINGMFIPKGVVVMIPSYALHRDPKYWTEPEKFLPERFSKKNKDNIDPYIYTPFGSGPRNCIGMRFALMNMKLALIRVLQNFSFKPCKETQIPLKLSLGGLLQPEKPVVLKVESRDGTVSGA
Source text: The following compounds identified in Table 16 below were the significant metabolites formed in all species.

HUVEC = test: VEGF induced proliferation, HUVEC cell-based assay; settings: Homo sapiens

Compound `COc1cc2nccc(Oc3ccc4c(c3)OCCN4C(=O)Nc3cc(C)on3)c2cc1OC` [Compound A, 7-((6,7-bis(methyloxy)-4-quinolinyl)oxy)-N-(5-methyl-3-isoxazolyl)-2,3-dihydro-4H-1,4-benzoxazine-4-carboxamide] has a clearance ([1]; intravenous) of 6.67 mL/min/kg, a Vd ([1]; intravenous, read-out: Rat Volume of Distribution) of 1 L/kg and a half-life ([1]; iv, I.V., read-out: Rat I.V. T1/2 (converted)) of 2.1 h. For the same compound, the bioavailability ([1]; po, 2 mg/kg, P.O., 2 mpk, read-out: Rat P.O. (2 mpk) % F) was 59%, the AUC(0-inf) ([1]; po, 2 mg/kg, P.O., 2 mpk, read-out: Rat P.O. (2 mpk) AUC0-inf) was 2810 ng·h/mL and the AUC(0-t) ([1]; po, 2 mg/kg, P.O., 2 mpk, read-out: Rat P.O. (2 mpk) AUC0-t) was 2800 ng·h/mL. The half-life ([1]; po, 2 mpk, P.O., read-out: Rat P.O. T1/2 (converted)) was 2 h, the “turnover in liver microsomes” value (liver microsomes) was “Substantial turnover” and the ED50 ([2]; Rattus norvegicus, Table 3, free base, number of vessels, read-out: ED50) was 0.16 mg/kg. For the same compound, the ED50 ([2]; Rattus norvegicus, Table 6, HCl salt Run #3, number of vessels, read-out: ED50) was 0.14 mg/kg, the “Average # of Vessels” value ([2]; Table 3, free base, VEGF disc + 0.03 mg/kg daily) was 24.5 and the “Average # of Vessels” value ([2]; Table 3, free base, VEGF disc + 0.1 mg/kg daily) was 24.9. For the same compound, the “Average # of Vessels” value ([2]; Table 3, free base, VEGF disc + 0.3 mg/kg daily) was 5.4, the “Average # of Vessels” value ([2]; Table 3, free base, VEGF disc + 1.0 mg/kg daily) was 2.3 and the ED50 ([2]; free base, review of Tables 2 and 3) was 0.16 mpk. The “Rat Liver Microsome” value (Rat Liver Microsome) was 45 µL/min/mg, the “AUC at ED50” value ([3]; Table 6, HCl salt Run #3) was 338 ng·h/mL and the “average AUC at the ED50” value ([3]; average of HCl salt studies of Tables 4 and 6 and free base study of Table 3) was 313 ng·h/mL. For the same compound, the AUC ([3]; 0.03 mg/kg, 0.03 mg/kg daily) was 109 ng·h/mL, the AUC ([3]; 0.1 mg/kg, 0.1 mg/kg daily) was 203 ng·h/mL and the AUC ([3]; 0.3 mg/kg, 0.3 mg/kg daily) was 730 ng·h/mL. The AUC ([3]; 1 mg/kg, 1.0 mg/kg daily) was 2370 ng·h/mL, the “Human Liver Microsome” value (Human Liver Microsome) was 17 µL/min/mg and the “metabolites formed with recombinant human cytochrome P450 3A4” value (cytochrome P450 3A4) was “These same metabolites were also formed”. It also gave an IC50 (HUVEC) of 2 nM.
